{
  "source": "patent US11291684B2",
  "about": "“Treatment of glaucoma” (TX MEDIC AB, priority 2017, dated 2022)",
  "key": {"[1]": {"system": "retinal ganglion cell (RGC)", "assay": "Retinal ganglion cell counts by immunohistochemistry in TGF-β-induced glaucoma model", "format": "in vivo, Sprague Dawley rats", "conditions": "rat TGF-β glaucoma model; day 28; vs saline", "method": "Glaucoma was induced in adult male Sprague Dawley rats by repeat twice weekly intracameral (IC) injections of transforming growth factor-β (TGF-β) to increase intraocular pressure (IOP). Sustained increases in IOP (after two weeks) leads to death of retinal ganglion cells (30-40%). Dextran sulfate (Tikomed AB, Sweden, WO 2016/076780) was administered at 15 mg/kg by daily subcutaneous injection from […] to assess RGC protection compared to controls.\nMeasured End-Points • IOP twice weekly throughout study from day 0 to day 28; • Immunohistochemistry for counting RGC that are immunoreactive for brain-specific homeobox/POU domain protein 3A (Brn3a) at day 28 (RGC survival); • Immunohistochemistry for laminin and fibronectin to evaluate scarring in the trabecular meshwork at day 28 in Groups 1 and 2; • Anterior segment and OCT imaging at day 28 to examine the angle and the thickness of the retinal nerve fiber layer comprising RGC axons; and • Body weight at day 28. […]\nFor quantification of RGC in retinal sections, RPBMS^+/DAPI^+ RGC were counted in 15 μm thick parasagittal sections of retina from a 250 μm linear portion from the ganglion cell layer at either side of the optic nerve. Four retinal sections from each eye in the control and treatment groups were quantified. […]"}, "laser-induced CNV": {"system": "laser-induced CNV", "assay": "Isolectin B4 and collagen IV staining of RPE/choroidal/sclera wholemounts in laser-induced CNV model", "format": "in vivo, C57BL/6J mice", "method": "Mice were anaesthetized with an intraperitoneal injection of 75 mg/kg ketamine and 7.5 mg/kg xylazine. The pupils were dilated with 1% atropine and 2.5% phenylephrine (Bausch & Lomb). To induce CNV, the rupture of Bruch's membrane-choroid was achieved by laser photocoagulation using the HGM Elite 532 Green Laser (Litechnica Ltd, Middesex, UK) with the spot size of 100 μm, 250 mW power and 100 msec duration. The laser spots were placed between retinal vessels and 2 to 3 disc-diameter away from the optic disc. The formation of a bubble at the site of laser application indicates the successful rupture of Bruch's membrane. Only laser burns in which a bubble was produced were included in this study. […] Three laser burns were applied to each retina.\nImmediately after CNV induction, all mice were injected subcutaneously with 500 μl of dextran sulfate or saline. The injection was repeated once daily for 9 days post laser-CNV induction.\nOn day 10 post-CNV induction, all mice were sacrificed and eyes were carefully removed. All eyes were fixed in 2% paraformaldehyde/PBS (Sigma-Aldrich, Dorset, UK) for 2 h at room temperature and then washed and stored in PBS at 4° C. RPE-choroid-sclera wholemounts were prepared using the protocol described. Briefly, the anterior segment of the eye, including the cornea, ciliary body, iris and the lens were removed. Five vertical cuts were made to the eye cup, and the retinal tissue was then carefully removed. The extra ocular tissues, including conjunctiva and ocular muscles were carefully removed from the eye-cup (containing RPE/choroid/sclera). The RPE/choroidal/sclera wholemounts were further processed for Griffonia simplicifolia lectin 1-isolectin B4 and collagen IV immunostaining.\nCNV was detected using the well-established isolectin B4 and collagen IV labelling technique. Isolectin B4 labels both infiltrating macrophages and vascular endothelial cells. Collagen IV labels the basal lamina of blood vessels. Both markers have been used widely to detect CNV.\nRPE/choroidal/sclera wholemounts were permeablized with 0.5% Triton X-100/PBS for 1 h at room temperature. The samples were then blocked with 10% BSA in 0.5% Triton X-100/PBS for 1 h and incubated with biotinylated Griffonia simplicifolia lectin 1-isolectin B4 (GSL Isolectin B4, 1:50, Vector Laboratories Ltd, UK) and collagen IV (1:50, BIO-RAD, UK) overnight at 4° C. After thorough washing in PBS (10 minutes×3), samples were incubated with streptavidin-fluorescein isothiocyanate (FITC) (1:100, Vector laboratories, UK) and goat anti rabbit AF594 (1:100, Invitrogen, UK) for two hours at room temperature. Samples were flat-mounted on glass slides with Vectashield Mounting Medium (Vector Laboratories Ltd, UK) and observed by fluorescent microscopy.\nLecia fluorescent microscope was used to acquire images from above prepared RPE-choroidal/sclera wholemount samples. A 10× objective lens was used to allow capturing the whole area of a CNV. The imaging software ImageJ was used to analyze the images. To measure the size of CNV, the border of CNV was outlined manually and the size was automatically calculated using Image J software.\nAll data (the size of CNV in each group) were expressed as mean±SEM. Student t test was used to compare the difference between the dextran sulfate group and the saline control group.\n24 C57BL/6J mice (10˜12 weeks old) were used in this study. […]"}, "[2]": {"conditions": "mouse laser-CNV, day 10, 0.6 mg/ml, 500 μl s.c. once daily, mean±SEM"}},
  "data": [
    {"substance": "dextran sulfate", "values": [
      {"measurement": "decline in RGC numbers present in the retina", "setting": "[1]", "result": "significantly prevented"},
      {"measurement": "effects on the laser-induced CNV", "setting": "laser-induced CNV; dose of 0.6 mg/ml per day", "result": "neither anti-angiogenic nor pro-angiogenic effects"},
      {"measurement": "difference vs saline control in lectin B4+ lesions", "setting": "laser-induced CNV; mouse laser-CNV, day 10", "result": "no statistical difference"},
      {"measurement": "difference vs vehicle (saline) in collagen IV new blood vessel area", "setting": "laser-induced CNV; mouse laser-CNV, day 10", "result": "no statistical significant difference"},
      {"measurement": "average isolectin B4 positive area", "setting": "laser-induced CNV; [2]", "result": "43972±2302", "unit": "μm^2"},
      {"measurement": "means of area of new blood vessels (collagen IV)", "setting": "laser-induced CNV; [2]", "result": "54681±2378", "unit": "μm^2"}
    ]}
  ]
}
